Data published in article PMC8550792, “Evolution of kinase polypharmacology across HSP90 drug discovery” (Cell Chemical Biology, 2021).

Key:
Experiment in all cases: biochemical
Format in all cases: biochemical
[1] = biological target: T1, 382 unique human kinases (Homo sapiens, UniProt P09619); details: kinase PDGFRb, compound 10 uM; for remaining activity at 10 µM: read-out: % Enzyme Activity (relative to DMSO controls)
T1 construct: purchased Reaction Biology (HotSpot contract assay)

[2] = biological target: T2, 382 unique human kinases (Homo sapiens, UniProt Q9NRM7); details: LATS2, 10 uM; for remaining activity at 10 µM: read-out: % Enzyme Activity (relative to DMSO controls)
T2 construct: purchased Reaction Biology (HotSpot contract assay)
T2 sequence (Q9NRM7 1-1088): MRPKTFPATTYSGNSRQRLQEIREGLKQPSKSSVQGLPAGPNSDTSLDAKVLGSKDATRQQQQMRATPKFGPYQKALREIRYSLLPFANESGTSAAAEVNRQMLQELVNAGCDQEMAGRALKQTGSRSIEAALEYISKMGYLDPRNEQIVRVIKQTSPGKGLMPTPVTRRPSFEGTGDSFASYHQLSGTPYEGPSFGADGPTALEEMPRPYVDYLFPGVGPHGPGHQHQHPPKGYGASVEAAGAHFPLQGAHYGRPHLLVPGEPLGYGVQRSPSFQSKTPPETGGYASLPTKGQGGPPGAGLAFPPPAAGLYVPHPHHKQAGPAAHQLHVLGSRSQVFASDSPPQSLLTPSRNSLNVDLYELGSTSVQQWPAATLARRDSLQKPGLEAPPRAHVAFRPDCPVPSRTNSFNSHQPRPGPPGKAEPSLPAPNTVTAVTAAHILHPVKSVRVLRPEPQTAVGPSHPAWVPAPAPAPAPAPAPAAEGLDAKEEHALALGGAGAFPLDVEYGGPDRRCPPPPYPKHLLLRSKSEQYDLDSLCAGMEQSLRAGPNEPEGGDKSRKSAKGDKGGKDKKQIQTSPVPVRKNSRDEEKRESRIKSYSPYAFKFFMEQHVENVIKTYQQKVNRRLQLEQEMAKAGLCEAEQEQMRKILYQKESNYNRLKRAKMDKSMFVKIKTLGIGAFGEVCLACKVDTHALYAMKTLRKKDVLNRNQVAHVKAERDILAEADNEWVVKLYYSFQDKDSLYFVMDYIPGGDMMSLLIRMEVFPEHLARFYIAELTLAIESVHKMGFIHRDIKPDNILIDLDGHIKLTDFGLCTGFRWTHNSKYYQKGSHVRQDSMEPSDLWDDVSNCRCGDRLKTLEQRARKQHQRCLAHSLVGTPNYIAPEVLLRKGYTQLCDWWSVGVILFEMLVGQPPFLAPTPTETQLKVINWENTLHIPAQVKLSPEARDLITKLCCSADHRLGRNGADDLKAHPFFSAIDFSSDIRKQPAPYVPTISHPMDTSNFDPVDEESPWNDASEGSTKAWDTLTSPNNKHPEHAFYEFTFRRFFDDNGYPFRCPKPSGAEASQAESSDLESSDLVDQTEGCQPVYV

[3] = biological target: T3, 382 unique human kinases (Homo sapiens, UniProt P10721, V654A); details: kinase c-Kit (V654A), compound 10 uM; for remaining activity at 10 µM: read-out: % Enzyme Activity (relative to DMSO controls)
T3 construct: purchased Reaction Biology (HotSpot contract assay)
T3 sequence (P10721 26-976 V654A): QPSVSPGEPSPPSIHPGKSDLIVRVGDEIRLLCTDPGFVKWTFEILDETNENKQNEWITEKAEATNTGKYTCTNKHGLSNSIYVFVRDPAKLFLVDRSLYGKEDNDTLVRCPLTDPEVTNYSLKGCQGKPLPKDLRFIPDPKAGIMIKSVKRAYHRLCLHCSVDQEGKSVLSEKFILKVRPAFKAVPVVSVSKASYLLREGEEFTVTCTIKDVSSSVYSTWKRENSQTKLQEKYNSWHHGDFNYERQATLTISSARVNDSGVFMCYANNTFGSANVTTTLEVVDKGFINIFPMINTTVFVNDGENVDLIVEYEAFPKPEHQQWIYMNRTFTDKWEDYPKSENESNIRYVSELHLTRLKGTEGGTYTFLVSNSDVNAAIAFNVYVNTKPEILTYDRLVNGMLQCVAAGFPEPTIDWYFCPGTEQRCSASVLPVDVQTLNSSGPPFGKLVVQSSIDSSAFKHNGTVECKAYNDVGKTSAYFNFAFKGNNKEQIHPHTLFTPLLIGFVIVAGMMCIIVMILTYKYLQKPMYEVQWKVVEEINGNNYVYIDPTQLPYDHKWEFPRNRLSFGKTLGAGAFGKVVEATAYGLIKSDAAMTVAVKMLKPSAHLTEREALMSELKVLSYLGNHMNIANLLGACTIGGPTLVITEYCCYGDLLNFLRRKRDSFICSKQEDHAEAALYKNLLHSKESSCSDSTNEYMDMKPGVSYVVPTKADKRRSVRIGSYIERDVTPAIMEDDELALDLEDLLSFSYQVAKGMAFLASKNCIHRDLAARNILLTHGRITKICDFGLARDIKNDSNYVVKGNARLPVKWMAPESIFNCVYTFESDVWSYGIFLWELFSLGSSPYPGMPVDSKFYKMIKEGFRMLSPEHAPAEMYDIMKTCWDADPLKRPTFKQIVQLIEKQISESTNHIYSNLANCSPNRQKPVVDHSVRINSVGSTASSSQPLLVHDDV

[4] = biological target: T4, 382 unique human kinases (Homo sapiens, UniProt P21802, E565G); details: kinase FGFR2 (E565G), compound 10 uM; for remaining activity at 10 µM: read-out: % Enzyme Activity (relative to DMSO controls)
T4 construct: purchased Reaction Biology (HotSpot contract assay)
T4 sequence (P21802 22-821 E565G): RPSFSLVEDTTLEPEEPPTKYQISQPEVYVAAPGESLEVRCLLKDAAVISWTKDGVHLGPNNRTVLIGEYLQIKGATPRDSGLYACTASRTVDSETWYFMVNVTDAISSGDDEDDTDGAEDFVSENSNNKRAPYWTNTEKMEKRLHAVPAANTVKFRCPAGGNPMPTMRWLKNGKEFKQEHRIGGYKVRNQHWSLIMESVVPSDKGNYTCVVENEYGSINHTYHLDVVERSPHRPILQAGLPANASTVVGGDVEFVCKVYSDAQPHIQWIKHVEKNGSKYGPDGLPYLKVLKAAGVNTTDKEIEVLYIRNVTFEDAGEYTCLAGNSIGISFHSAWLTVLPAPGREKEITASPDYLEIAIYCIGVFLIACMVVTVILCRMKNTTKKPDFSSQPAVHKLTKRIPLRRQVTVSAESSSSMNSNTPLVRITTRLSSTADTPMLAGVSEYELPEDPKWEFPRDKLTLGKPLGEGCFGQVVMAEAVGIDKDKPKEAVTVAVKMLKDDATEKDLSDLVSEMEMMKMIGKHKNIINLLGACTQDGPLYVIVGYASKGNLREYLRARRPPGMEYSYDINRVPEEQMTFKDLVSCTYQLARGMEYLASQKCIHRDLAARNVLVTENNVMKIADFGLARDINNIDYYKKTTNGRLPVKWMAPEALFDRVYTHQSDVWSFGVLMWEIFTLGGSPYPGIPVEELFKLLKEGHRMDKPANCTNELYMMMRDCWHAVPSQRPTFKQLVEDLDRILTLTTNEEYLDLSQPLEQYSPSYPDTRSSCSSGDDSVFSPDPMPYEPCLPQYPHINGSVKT

[5] = biological target: T5, 382 unique human kinases (Homo sapiens, UniProt P04049); details: RAF1, compound at 10 uM, duplicate values; for remaining activity at 10 µM: read-out: % Enzyme Activity (relative to DMSO controls)
T5 construct: purchased Reaction Biology (HotSpot contract assay)

[6] = biological target: T6, 382 unique human kinases (Homo sapiens, UniProt Q8TDX7); details: NEK7, compound at 10 uM, duplicate values; for remaining activity at 10 µM: read-out: % Enzyme Activity (relative to DMSO controls)
T6 construct: purchased Reaction Biology (HotSpot contract assay)
T6 sequence (Q8TDX7 whole entry): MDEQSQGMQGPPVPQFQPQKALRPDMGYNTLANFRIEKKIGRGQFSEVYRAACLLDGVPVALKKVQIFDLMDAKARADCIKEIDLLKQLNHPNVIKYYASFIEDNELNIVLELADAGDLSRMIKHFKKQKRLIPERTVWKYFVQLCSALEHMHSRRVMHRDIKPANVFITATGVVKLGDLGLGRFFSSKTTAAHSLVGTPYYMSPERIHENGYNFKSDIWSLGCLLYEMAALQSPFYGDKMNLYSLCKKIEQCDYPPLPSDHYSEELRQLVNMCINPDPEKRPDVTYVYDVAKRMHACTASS

[7] = biological target: T7, 382 unique human kinases (Homo sapiens, UniProt Q06187, C481S); details: BTK (C481S), [ATP] 15 µM, compound 10 uM; for remaining activity at 10 µM: read-out: % Enzyme Activity (relative to DMSO controls)
T7 construct: purchased Reaction Biology (HotSpot contract assay)
T7 sequence (Q06187 whole entry C481S): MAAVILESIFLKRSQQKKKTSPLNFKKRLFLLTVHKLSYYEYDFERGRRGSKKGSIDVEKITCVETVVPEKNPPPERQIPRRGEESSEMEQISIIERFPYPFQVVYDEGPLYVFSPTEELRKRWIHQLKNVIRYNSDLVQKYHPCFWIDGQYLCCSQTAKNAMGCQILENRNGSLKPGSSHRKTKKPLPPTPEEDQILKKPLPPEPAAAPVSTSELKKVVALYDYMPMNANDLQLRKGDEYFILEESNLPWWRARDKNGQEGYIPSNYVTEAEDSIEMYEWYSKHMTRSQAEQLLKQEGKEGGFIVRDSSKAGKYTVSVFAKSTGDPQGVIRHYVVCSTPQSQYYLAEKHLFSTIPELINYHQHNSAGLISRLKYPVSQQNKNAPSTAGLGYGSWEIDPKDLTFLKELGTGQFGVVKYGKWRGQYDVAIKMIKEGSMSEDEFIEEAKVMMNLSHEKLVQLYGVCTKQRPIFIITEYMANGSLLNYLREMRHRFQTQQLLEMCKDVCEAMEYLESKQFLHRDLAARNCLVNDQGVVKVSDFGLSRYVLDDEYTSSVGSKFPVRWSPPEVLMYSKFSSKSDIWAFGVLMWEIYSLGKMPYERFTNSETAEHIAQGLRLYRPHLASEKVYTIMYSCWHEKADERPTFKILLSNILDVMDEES

[8] = biological target: T8, 382 unique human kinases (Homo sapiens, UniProt Q86SG6); details: NEK8, [ATP] 100 µM, compound 10 uM; for remaining activity at 10 µM: read-out: % Enzyme Activity (relative to DMSO controls)
T8 construct: purchased Reaction Biology (HotSpot contract assay)
T8 sequence (Q86SG6 1-692): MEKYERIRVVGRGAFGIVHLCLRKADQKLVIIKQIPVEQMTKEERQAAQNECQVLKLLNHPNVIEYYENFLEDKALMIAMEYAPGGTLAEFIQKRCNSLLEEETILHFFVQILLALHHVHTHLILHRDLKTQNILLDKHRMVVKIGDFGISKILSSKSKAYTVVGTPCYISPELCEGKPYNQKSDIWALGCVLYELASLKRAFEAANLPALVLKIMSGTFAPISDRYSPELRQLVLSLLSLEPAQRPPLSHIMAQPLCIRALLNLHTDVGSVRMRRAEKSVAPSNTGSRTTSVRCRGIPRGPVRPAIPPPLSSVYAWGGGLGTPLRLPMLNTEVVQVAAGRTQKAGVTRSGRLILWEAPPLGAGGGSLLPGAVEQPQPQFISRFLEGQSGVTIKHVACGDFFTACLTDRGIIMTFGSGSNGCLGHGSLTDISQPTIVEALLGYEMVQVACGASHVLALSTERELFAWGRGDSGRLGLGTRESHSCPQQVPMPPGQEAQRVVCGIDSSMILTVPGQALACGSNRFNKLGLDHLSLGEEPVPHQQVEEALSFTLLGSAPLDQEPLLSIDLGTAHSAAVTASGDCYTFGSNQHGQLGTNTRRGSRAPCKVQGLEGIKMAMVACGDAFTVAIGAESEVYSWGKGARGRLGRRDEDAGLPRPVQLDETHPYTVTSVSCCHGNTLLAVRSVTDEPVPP

[9] = biological target: T9, 382 unique human kinases (Homo sapiens, UniProt Q9H792); details: PEAK1, [ATP] 30 µM
T9 construct: purchased Reaction Biology (HotSpot contract assay)
T9 sequence (Q9H792 whole entry): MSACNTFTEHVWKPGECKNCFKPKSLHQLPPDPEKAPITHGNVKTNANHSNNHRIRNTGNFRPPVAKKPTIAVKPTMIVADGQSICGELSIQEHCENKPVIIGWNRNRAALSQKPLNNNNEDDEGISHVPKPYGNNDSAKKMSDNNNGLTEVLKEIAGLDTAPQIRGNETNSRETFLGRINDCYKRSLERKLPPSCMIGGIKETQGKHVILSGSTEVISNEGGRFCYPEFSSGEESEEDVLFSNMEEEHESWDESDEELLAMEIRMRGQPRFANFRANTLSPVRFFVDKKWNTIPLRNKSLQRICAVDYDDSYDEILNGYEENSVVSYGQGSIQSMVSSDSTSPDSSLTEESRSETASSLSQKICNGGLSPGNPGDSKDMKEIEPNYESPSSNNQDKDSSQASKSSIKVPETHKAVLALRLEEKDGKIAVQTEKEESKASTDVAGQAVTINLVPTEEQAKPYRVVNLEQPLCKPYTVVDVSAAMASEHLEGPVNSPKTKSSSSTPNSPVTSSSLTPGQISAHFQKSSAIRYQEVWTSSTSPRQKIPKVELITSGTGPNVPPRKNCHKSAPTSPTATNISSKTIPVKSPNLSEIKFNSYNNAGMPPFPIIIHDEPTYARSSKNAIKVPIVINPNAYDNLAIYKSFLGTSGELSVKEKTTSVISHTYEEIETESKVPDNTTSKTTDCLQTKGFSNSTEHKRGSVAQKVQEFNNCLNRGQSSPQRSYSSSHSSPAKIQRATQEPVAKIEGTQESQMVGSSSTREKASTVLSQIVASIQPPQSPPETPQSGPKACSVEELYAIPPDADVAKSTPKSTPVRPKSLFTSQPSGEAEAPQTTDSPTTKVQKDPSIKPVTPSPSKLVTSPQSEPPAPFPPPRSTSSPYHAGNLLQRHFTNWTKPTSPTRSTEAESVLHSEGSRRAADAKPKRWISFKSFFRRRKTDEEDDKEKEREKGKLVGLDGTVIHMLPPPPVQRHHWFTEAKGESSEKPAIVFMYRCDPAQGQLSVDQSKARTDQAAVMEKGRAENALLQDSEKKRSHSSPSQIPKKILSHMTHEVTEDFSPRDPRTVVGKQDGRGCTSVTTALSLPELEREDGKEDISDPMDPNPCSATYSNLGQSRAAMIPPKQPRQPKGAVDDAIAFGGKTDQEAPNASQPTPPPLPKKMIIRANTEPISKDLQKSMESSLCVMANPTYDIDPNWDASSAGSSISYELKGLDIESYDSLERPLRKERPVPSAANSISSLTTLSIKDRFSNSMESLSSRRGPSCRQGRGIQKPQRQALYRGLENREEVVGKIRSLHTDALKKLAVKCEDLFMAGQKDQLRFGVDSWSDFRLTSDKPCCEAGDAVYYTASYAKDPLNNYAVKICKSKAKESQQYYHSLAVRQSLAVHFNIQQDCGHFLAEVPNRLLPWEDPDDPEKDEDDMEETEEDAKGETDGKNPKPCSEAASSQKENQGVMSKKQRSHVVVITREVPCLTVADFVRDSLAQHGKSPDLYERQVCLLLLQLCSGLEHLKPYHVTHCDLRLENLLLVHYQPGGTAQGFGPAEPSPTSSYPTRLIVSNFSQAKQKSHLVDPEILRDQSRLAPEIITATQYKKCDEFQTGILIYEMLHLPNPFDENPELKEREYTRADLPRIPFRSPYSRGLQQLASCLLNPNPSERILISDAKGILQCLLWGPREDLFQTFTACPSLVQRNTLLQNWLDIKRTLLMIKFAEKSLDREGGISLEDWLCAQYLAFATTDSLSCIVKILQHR

[10] = biological target: T10, 382 unique human kinases (Homo sapiens, UniProt Q15418); details: RSK1, [ATP] 20 µM, compound 10 uM; for remaining activity at 10 µM: read-out: % Enzyme Activity (relative to DMSO controls)
T10 construct: purchased Reaction Biology (HotSpot contract assay)

[11] = biological target: T11, 382 unique human kinases (Homo sapiens, UniProt Q9Y243); details: AKT3, 10 uM; for remaining activity at 10 µM: read-out: % Enzyme Activity (relative to DMSO controls)
T11 construct: purchased Reaction Biology (HotSpot contract assay)

[12] = biological target: T12, 382 unique human kinases (Homo sapiens, UniProt P10721, D816Y); details: c-Kit (D816Y), [ATP] 10 µM, compound 10 uM; for remaining activity at 10 µM: read-out: % Enzyme Activity (relative to DMSO controls)
T12 construct: purchased Reaction Biology (HotSpot contract assay)
T12 sequence (P10721 26-976 D816Y): as the sequence (P10721 26-976 V654A) above, with A629V, D791Y counted along it

[13] = biological target: T13, 382 unique human kinases (Homo sapiens, UniProt Q8N5S9); details: CAMKK1, 10 uM; for remaining activity at 10 µM: read-out: % Enzyme Activity (relative to DMSO controls)
T13 construct: purchased Reaction Biology (HotSpot contract assay)
T13 sequence (Q8N5S9 whole entry): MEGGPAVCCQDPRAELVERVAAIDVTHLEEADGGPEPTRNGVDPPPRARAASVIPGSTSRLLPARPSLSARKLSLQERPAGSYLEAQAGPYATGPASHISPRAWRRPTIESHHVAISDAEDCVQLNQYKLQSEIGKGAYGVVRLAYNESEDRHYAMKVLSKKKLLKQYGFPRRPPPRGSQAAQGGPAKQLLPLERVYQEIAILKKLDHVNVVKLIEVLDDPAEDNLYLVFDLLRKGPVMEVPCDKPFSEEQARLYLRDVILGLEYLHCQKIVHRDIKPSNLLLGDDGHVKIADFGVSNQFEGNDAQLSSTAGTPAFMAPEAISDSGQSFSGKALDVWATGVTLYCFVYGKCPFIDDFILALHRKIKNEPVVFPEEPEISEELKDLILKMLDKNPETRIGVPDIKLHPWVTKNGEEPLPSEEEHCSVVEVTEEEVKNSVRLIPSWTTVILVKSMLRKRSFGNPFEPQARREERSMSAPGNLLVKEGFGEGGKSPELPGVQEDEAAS

[14] = compound 10 uM, read-out: % Enzyme Activity (relative to DMSO controls)

Row | SMILES | remaining activity at 10 µM [1] | remaining activity at 10 µM [2] | remaining activity at 10 µM [3] | remaining activity at 10 µM [4] | remaining activity at 10 µM [5] | remaining activity at 10 µM [6] | remaining activity at 10 µM [7] | remaining activity at 10 µM [8] | remaining activity at 10 µM [9, 14] | remaining activity at 10 µM [10] | remaining activity at 10 µM [11] | remaining activity at 10 µM [12] | remaining activity at 10 µM [13] | other results
1 | CC(C)c1cc(-c2n[nH]c(=O)n2-c2ccc3c(ccn3C)c2)c(O)cc1O [Ganetespib (STA9090)] | 92.1% | 74.3% | 81.4% | 79.4% | 106% | 113% |  |  |  |  |  |  |  | 
2 | CC(C)c1cc(-c2n[nH]c(=O)n2-c2ccc3c(ccn3C)c2)c(O)cc1O [Ganetespib] |  |  |  |  |  |  | 65% | 56.7% | 10.2% | 54.1% | 92.1% | 32.1% | 99% | remaining activity at 1 µM ([9]; compound 1 uM, read-out: % Enzyme Activity (relative to DMSO controls)): 43.5%
3 | CCNC(=O)c1noc(-c2cc(C(C)C)c(O)cc2O)c1-c1ccc(CN2CCOCC2)cc1 [Luminespib (AUY-922)] | 83.2% | 94.8% | 85.8% | 98.6% | 105% | 116% |  |  |  |  |  |  |  | % Enzyme Activity (relative to DMSO controls) [1]: 81.53%; % Enzyme Activity (relative to DMSO controls) [2]: 91.88%; % Enzyme Activity (relative to DMSO controls) [3]: 85.21%; % Enzyme Activity (relative to DMSO controls) [4]: 97.20%; % Enzyme Activity (relative to DMSO controls) [5]: 103.94%; % Enzyme Activity (relative to DMSO controls) [6]: 116.20%
4 | CCNC(=O)c1noc(-c2cc(C(C)C)c(O)cc2O)c1-c1ccc(CN2CCOCC2)cc1 [Luminespib] |  |  |  |  |  |  | 43.2% | 94.8% | 30.1% | 103% | 100% | 57.9% | 104% | % Enzyme Activity (relative to DMSO controls) [7]: 41.81%; % Enzyme Activity (relative to DMSO controls) [8]: 93.87%; % Enzyme Activity (relative to DMSO controls) ([9]; compound 10 uM): 29.19%; % Enzyme Activity (relative to DMSO controls) [10]: 100.81%; % Enzyme Activity (relative to DMSO controls) [11]: 99.02%; % Enzyme Activity (relative to DMSO controls) [12]: 53.55%; % Enzyme Activity (relative to DMSO controls) [13]: 103.58%
